Results as given in patent US20230322788A1, “IMIDAZOTRIAZINE AND PYRROLOPYRIMIDINE DERIVATIVES AS KRAS G12C INHIBITORS” (BeiGene, Ltd., priority 2020, published 2023).

Target: KRAS (aa 1-169) G12C, C51S, C80L, C118S (Homo sapiens (Human), UniProt P01116, C118S/C51S/C80L/G12C)
Assay: KRAS G12C SOS1-mediated nucleotide exchange / cRaf RBD binding FRET assay (Biochemical Functional Assay)
Conditions: GDP-loaded KRAS G12C pre-incubated with compound at 24° C. for 3 hrs; SOS1, GTPγS, GST-cRaf RBD; inhibition of nucleotide exchange
Description: The KRAS ([…]) G12C, C51S, C80L, C118S with a His-tag was expressed, purified and loaded with GDP in house. All protein and substrate solutions were prepared in assay buffer containing 25 mM HEPES pH7.5, 10 mM MgCl2, and 0.01% Triton X-100. Purified GDP-loaded KRAS (aa 1-169) G12C, C51S, C80L, C118S protein was pre-incubated with a serially diluted compound at 24° C. for 3 hrs. Purified SOS1 (aa 564-1049) protein, GTPYS (Sigma) and GST-cRaf RBD (aa 1-149) were then added to each well and incubated at 24° C. for additional 3 hrs. […] Following the incubation, Mab Anti-6HIS-Tb cryptate (Cisbio) and Mab Anti GST-XL665 (Cisbio) were added and further incubated at 24° C. for 3 hrs. The binding interaction between active GTPγS KRAS G12C and GST-cRaf RBD brings the Tb and XL665 into close proximity enabling an increased FRET signal (Ex337 nm, Em665 nm/620 nm). The inhibition percentage of nucleotide exchange reaction in presence of increasing concentrations of compounds was calculated based on the ratio of fluorescence at 665 nm to that at 620 nm detected on a BMG PHERAstar FSX instrument. The IC50 value of each compound was calculated from fitting the data to the four-parameter logistic model by Dotmatics.

Sequence of KRAS (aa 1-169) G12C, C51S, C80L, C118S (P01116 other isoform, or with tags, fused parts or gaps G12C/C51S/C80L/C118S): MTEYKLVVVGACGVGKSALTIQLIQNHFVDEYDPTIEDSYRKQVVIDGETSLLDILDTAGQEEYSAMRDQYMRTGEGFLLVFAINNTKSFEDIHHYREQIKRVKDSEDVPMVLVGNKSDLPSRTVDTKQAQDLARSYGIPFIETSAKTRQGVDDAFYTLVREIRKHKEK

SMILES	IC50
C=CC(=O)N1CCN(c2nc(OC[C@@H]3CCCN3C)nc3c(Cc4cc(O)cc5ccccc45)cn(C)c23)C[C@@H]1CC#N [Compound B1, 2-((S)-1-acryloyl-4-(7-((3-hydroxynaphthalen-1-yl)methyl)-5-methyl-2-(((S)-1-methylpyrrolidin-2-yl)methoxy)-5H-pyrrolo[3,2-d]pyrimidin-4-yl)piperazin-2-yl)acetonitrile]	6.2 nM
C=CC(=O)N1CCN(c2nc(OC[C@@H]3CCCN3C)nc3c(Cc4cc(O)cc5ccccc45)cn(CC)c23)C[C@@H]1CC#N [Compound B2, 2-((S)-1-acryloyl-4-(5-ethyl-7-((3-hydroxynaphthalen-1-yl)methyl)-2-(((S)-1-methylpyrrolidin-2-yl)methoxy)-5H-pyrrolo[3,2-d]pyrimidin-4-yl)piperazin-2-yl)acetonitrile]	13 nM
C=CC(=O)N1CCN(c2nc(OC[C@@H]3C[C@@H](F)CN3C)nc3c(Cc4cc(O)cc5ccccc45)cn(C)c23)C[C@@H]1CC#N [Compound B3, 2-((S)-1-acryloyl-4-(2-(((2S,4R)-4-fluoro-1-methylpyrrolidin-2-yl)methoxy)-7-((3-hydroxynaphthalen-1-yl)methyl)-5-methyl-5H-pyrrolo[3,2-d]pyrimidin-4-yl)piperazin-2-yl)acetonitrile]	20.3 nM
C=CC(=O)N1CCN(c2nc(OC[C@@H]3CCCN3C)nc3c(Cc4cc(O)cc5ccccc45)cn(C)c23)CC1 [Compound B4, (S)-1-(4-(7-((3-hydroxynaphthalen-1-yl)methyl)-5-methyl-2-((1-methylpyrrolidin-2-yl)methoxy)-5H-pyrrolo[3,2-d]pyrimidin-4-yl)piperazin-1-yl)prop-2-en-1-one]	329 nM
C=CC(=O)N1CCN(c2nc(OC[C@@H]3CCCN3C)nc3c(Cc4c(C(F)(F)F)ccc5[nH]ncc45)c[nH]c23)C[C@@H]1CC#N [Compound B5, 2-((S)-1-acryloyl-4-(2-(((S)-1-methylpyrrolidin-2-yl)methoxy)-7-((5-(trifluoromethyl)-1H-indazol-4-yl)methyl)-5H-pyrrolo[3,2-d]pyrimidin-4-yl)piperazin-2-yl)acetonitrile]	64.1 nM
C=C(F)C(=O)N1CCN(c2nc(OC[C@@H]3CCCN3C)nc3c(Cc4c(Cl)c(F)cc5[nH]ncc45)c[nH]c23)C[C@@H]1CC#N [Compound B6, 2-((S)-4-(7-((5-chloro-6-fluoro-1H-indazol-4-yl)methyl)-2-(((S)-1-methylpyrrolidin-2-yl)methoxy)-5H-pyrrolo[3,2-d]pyrimidin-4-yl)-1-(2-fluoroacryloyl)piperazin-2-yl)acetonitrile]	639 nM
